Data as given in article PMC12254266, “Multicolored sequential resonance energy transfer for detection of simultaneous ligand binding at G protein-coupled receptors” (Nature Communications, 2025).
Values joined by “and” are separate entries in the source; they are usually repeats but may differ in a detail not shown here. Identical values can stand only once.

Molecular target: FFA1-Nluc (Homo sapiens, UniProt O14842)
Assay: DISCo-BRET (endpoint, spectra scan, kinetics) with TUG-2591 and TUG-2597 at C terminal Nluc tagged FFA1
Type: binding
Set-up: expressed in transfected cells
Conditions: for pIC50 DISCo-BRET NBD/Nluc / pIC50 DISCo-BRET SulfoCy5/NBD / 'bottom' of the IC50 curve, DISCo-BRET SulfoCy5/NBD: 100 nM TUG-2591 and […] TUG-2597; for pIC50 DISCo-BRET NBD/Nluc / pIC50 DISCo-BRET SulfoCy5/NBD: NC = No competition; for pIC50 DISCo-BRET SulfoCy5/NBD: one site model; for Specific BRET (540/450), % of control: Figure 4Bii, single replicate values (technical duplicate); for 'bottom' of the IC50 curve, DISCo-BRET NBD/Nluc / 'bottom' of the IC50 curve, DISCo-BRET SulfoCy5/NBD: percentage of binding obtained in the absence of competing ligand; for pKi DISCo-BRET NBD/Nluc: using Kd TUG-2597 380 nM
How it was run: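 After Nano-Glo substrate (1:800 final), ligand-treated FFA1-Nluc or Nluc-FFA1 cells, doxycycline-induced (100 ng/mL), were read. Kinetic association/dissociation runs were at 25 °C; endpoint and 440–740 nm spectra came after 5 min at 37 °C. Non-specific signal came from competing ligands at high concentration.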

Sequence of FFA1-Nluc (O14842 whole entry): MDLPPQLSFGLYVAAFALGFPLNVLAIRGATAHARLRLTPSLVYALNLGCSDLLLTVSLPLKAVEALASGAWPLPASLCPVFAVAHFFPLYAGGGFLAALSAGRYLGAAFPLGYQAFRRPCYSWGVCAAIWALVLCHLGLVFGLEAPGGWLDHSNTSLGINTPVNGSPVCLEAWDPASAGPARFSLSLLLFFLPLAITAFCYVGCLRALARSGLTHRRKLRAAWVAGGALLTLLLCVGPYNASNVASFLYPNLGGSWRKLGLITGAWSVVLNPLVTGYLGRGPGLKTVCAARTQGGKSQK

| SMILES | pIC50 DISCo-BRET NBD/Nluc | pIC50 DISCo-BRET SulfoCy5/NBD | Specific BRET (540/450), % of control (log[Ligand] -5) | Specific BRET (540/450), % of control (log[Ligand] -5.5) | Specific BRET (540/450), % of control (log[Ligand] -6) | Specific BRET (540/450), % of control (log[Ligand] -6.5) | Specific BRET (540/450), % of control (log[Ligand] -7) | Specific BRET (540/450), % of control (log[Ligand] -8) | Specific BRET (540/450), % of control (log[Ligand] -9) | 'bottom' of the IC50 curve, DISCo-BRET NBD/Nluc [%] | 'bottom' of the IC50 curve, DISCo-BRET SulfoCy5/NBD [%] | pKi DISCo-BRET NBD/Nluc |
| --- | --- | --- | --- | --- | --- | --- | --- | --- | --- | --- | --- | --- |
| COc1ccc(CCCC(C)(C)C)c(N2CCC(COc3cccc(C(CC(=O)O)C4CC4)c3)CC2)c1.O=C(O)C(F)(F)F (stereo not drawn) [T360] | 7.1±0.2 | 7.6±0.1 | 1.63 % of control and 7.70 % of control and -6.77 % of control and 6.77 % of control and -12.97 % of control and -14.56 % of control and 1.39 % of control and 12.17 % of control and -49.44 % of control and -45.86 % of control and -1.49 % of control and 1.49 % of control and 11.42 % of control and 8.60 % of control | 30.05 % of control and 22.50 % of control and 2.63 % of control and 15.04 % of control and 41.18 % of control and 27.53 % of control and 25.39 % of control and 35.48 % of control and -24.38 % of control and -7.83 % of control and -19.08 % of control and -0.74 % of control and 16.94 % of control and 11.73 % of control | 30.79 % of control and 26.05 % of control and 32.33 % of control and 27.63 % of control and 21.16 % of control and 17.29 % of control and 31.30 % of control and 14.26 % of control and 23.94 % of control and -20.81 % of control and -12.14 % of control and 8.18 % of control and 24.56 % of control and 26.12 % of control | 56.11 % of control and 56.70 % of control and 19.92 % of control and 23.50 % of control and 31.40 % of control and 51.88 % of control and 45.22 % of control and 38.96 % of control and 25.28 % of control and 31.99 % of control and -27.26 % of control and -0.25 % of control and 41.03 % of control and 36.03 % of control | 69.58 % of control and 52.70 % of control and 27.26 % of control and 51.32 % of control and 37.09 % of control and 73.27 % of control and 43.13 % of control and 45.22 % of control and 35.12 % of control and 64.21 % of control and 2.48 % of control and 20.07 % of control and 56.78 % of control and 46.56 % of control | 90.01 % of control and 86.45 % of control and 67.29 % of control and 72.37 % of control and 95.79 % of control and 112.63 % of control and 106.43 % of control and 144.35 % of control and 71.81 % of control and 80.31 % of control and 48.08 % of control and 68.65 % of control and 78.15 % of control and 70.13 % of control | 104.22 % of control and 94.30 % of control and 79.70 % of control and 92.67 % of control and 141.30 % of control and 86.46 % of control and 144.00 % of control and 157.22 % of control and 122.37 % of control and 108.50 % of control and 74.10 % of control and 106.82 % of control and 97.86 % of control and 85.14 % of control | 2.7 | 25 | 7.3±0.2 |
| COc1ccc(C(=O)N(CC(C)(C)C)c2cccc(C)n2)c(N2CCC(COc3cccc(C(CC(=O)O)C4CC4)c3)CC2)c1.O=C(O)C(F)(F)F (stereo not drawn) [Cpd 6h, reference compound] | 7.3±0.1 | 7.4±0.1 | 29.23 % of control and -1.54 % of control and -0.53 % of control and 0.53 % of control and 0.62 % of control and 6.18 % of control and -2.77 % of control and 4.56 % of control and -7.63 % of control and 10.97 % of control | 46.57 % of control and -7.13 % of control and 13.78 % of control and 13.63 % of control and 17.56 % of control and 19.08 % of control and -1.79 % of control and 0.81 % of control and 1.43 % of control and -21.22 % of control | 59.72 % of control and 23.08 % of control and 13.18 % of control and 6.55 % of control and 14.37 % of control and 13.95 % of control and 102.77 % of control and 7.65 % of control and 12.16 % of control and 25.98 % of control | 46.01 % of control and 12.17 % of control and 20.56 % of control and 31.70 % of control and 26.58 % of control and 36.43 % of control and 14.98 % of control and 12.87 % of control and 22.17 % of control and 15.73 % of control | 46.01 % of control and 48.53 % of control and 38.93 % of control and 54.59 % of control and 43.79 % of control and 54.75 % of control and 36.48 % of control and 23.45 % of control and 26.46 % of control and 27.41 % of control | 134.69 % of control and 121.26 % of control and 83.36 % of control and 78.84 % of control and 78.63 % of control and 91.67 % of control and 70.36 % of control and 75.90 % of control and 108.22 % of control and 143.98 % of control | 144.76 % of control and 148.39 % of control and 88.63 % of control and 100.08 % of control and 88.76 % of control and 93.89 % of control and 95.60 % of control and 108.79 % of control and 114.18 % of control and 110.13 % of control | 9.3 | 16 | 7.5±0.1 |
